These are literature values, as cited in patent publication US20080039428A1, “Antiretroviral combination therapy” (Panacos Pharmaceuticals, Inc., priority 2006, published 2008).

For this series, the system named is HIV.

Regarding `C=C(C)[C@@H]1CC[C@]2(C(=O)O)CC[C@]3(C)[C@H](CC[C@@H]4[C@@]5(C)CC[C@H](OC(=O)CC(C)(C)C(=O)O)C(C)(C)[C@@H]5CC[C@]43C)[C@@H]12` [DSB, 3-O-(3′,3′-dimethylsuccinyl)betulinic acid], the “inhibition of HIV replication” value was “potent inhibitor of HIV replication”.
